Consider two compounds from patent US10624894B2, “Pharmaceutical product and communication tool” (ScientificMed Sweden AB, priority 2011, dated 2020).

The subject of data set [1] is patients with newly reported Acute Coronary Syndrome (ACS). The experiment in a line: Study 5: randomized controlled trial, Ticagrelor with QFM (active group) versus Ticagrelor with e-diary (control group). In kind it is in vivo, human. An excerpt:
The study design was two different patient groups with at least eighty patients in each group. The group using the invention, hereafter called the active group, used their own mobile phones to use the QFM described above and the actual drug Ticagrelor. The other group, hereafter called the control group, used their own mobile phones with just an e-diary (control app) and the actual drug Ticagrelor.
Study design: Randomized Controlled Trial with two different patient groups
Intervention to evaluate: The invention using the above described QFM in the patients mobile phones, integrated with the actual drug
Actual used drug: Ticagrelor (Brilique)
Control: e-diary. The e-diary consisted of the following items and functionalities, enabling data for study evaluation • The questions concerning adherence to the specific drug, being able to answer whether the patient took the drug in the morning and/or in the evening, for the actual day and the day before. • A reminder through a text message if the patient missed to answer the adherence questions during one day
Patient group: Patients with newly reported Acute Coronary Syndrome (ACS).
Number of patients in total: 166
Length of using the invention: Six months
Primary objective: Assess the non-adherence to the drug according to the prescription recommendation in patients using the invention compared to patients who only use the control-app
The primary endpoint definition was according to the following: Composite endpoint of adherence failure- or treatment gap events registered by patients • Adherence failure events; • More than 14% missed doses during an observation cycle of 7 days. The first missed dose of the drug initiates an observation cycle of 1 week. If a second missed dose is registered within this week an adherence failure event is registered. The third missed dose initiates a new observation cycle, and the process restarts. • Treatment gap events; • patient reported gaps of more than 4 consecutive doses
Secondary objectives: Comparison between active group and control group concerning; • Adherence to treatment of the specific drug • Cardiovascular risk factors: • BMI • Physical activity • Blood pressure • LDL-cholesterol • Smoking cessation • Quality of life (EQ5D-VAS)
The patients with ACS was randomly selected to one of the study arms. After inclusion patients in the active group used the described QFM in relation to the actual drug during the actual period of time.

For data set [2] the following is noted: source: EPAR summary for Lyrica; cited from earlier work.
The mark [3] stands for this setting: Active group (QFM + Ticagrelor).
The mark [4] stands for this setting: Control group (e-diary + Ticagrelor).

SMILES strings stand for the structures.

Take `CCCSc1nc(N[C@@H]2C[C@H]2c2ccc(F)c(F)c2)c2nnn([C@@H]3C[C@H](OCCO)[C@@H](O)[C@H]3O)c2n1` [Ticagrelor, ticagrelor]: in data set [1] (setting [3]), the LDL change is −1.8, the Physical activity improvements was 50%, the “Quality of life (EQ5D-VAS) change” value is reported as “+14.7” and the Smoking cessation is listed as −80%. Also, in data set [1] (setting [4]), the LDL change is −1.0, the Physical activity improvements was found to be 32%, the “Quality of life (EQ5D-VAS) change” value is “+8.4” and the Smoking cessation is −45%. In addition, the “BMI; average decrease in weight” value in data set [1] (Patients having a BMI >30, group not stated) turned out to be 5%. In addition, the “patient deaths during the usage of the invention” value in data set [1] (six months) is recorded as “No patients in the study died”.
As to `CC(C)C[C@H](CN)CC(=O)O` [A, pregabalin], in data set [2], the “Common side-effects which may affect more than 1 person in 100 (among others)” value was “dry mouth, nausea” and the “Very common side-effects which may affect more than 1 person in 10” value was “dizziness, tiredness”.
